Experimental data as given in ChEMBL document CHEMBL2074441, “Identification of breast cancer resistant protein/mitoxantrone resistance/placenta-specific, ATP-binding cassette transporter as a transporter of NB-506 and J-107088, topoisomerase I inhibitors with an indolocarbazole structure” (Cancer Res, 2001).

Experiments:
[1] = target: T1, Broad substrate specificity ATP-binding cassette transporter ABCG2 (Mus musculus, UniProt Q7TMS5); assay: TP_TRANSPORTER: intracellular accumulation in LY and LY/NR2 cells; format: functional, cell-based
T1 sequence (Q7TMS5 whole entry): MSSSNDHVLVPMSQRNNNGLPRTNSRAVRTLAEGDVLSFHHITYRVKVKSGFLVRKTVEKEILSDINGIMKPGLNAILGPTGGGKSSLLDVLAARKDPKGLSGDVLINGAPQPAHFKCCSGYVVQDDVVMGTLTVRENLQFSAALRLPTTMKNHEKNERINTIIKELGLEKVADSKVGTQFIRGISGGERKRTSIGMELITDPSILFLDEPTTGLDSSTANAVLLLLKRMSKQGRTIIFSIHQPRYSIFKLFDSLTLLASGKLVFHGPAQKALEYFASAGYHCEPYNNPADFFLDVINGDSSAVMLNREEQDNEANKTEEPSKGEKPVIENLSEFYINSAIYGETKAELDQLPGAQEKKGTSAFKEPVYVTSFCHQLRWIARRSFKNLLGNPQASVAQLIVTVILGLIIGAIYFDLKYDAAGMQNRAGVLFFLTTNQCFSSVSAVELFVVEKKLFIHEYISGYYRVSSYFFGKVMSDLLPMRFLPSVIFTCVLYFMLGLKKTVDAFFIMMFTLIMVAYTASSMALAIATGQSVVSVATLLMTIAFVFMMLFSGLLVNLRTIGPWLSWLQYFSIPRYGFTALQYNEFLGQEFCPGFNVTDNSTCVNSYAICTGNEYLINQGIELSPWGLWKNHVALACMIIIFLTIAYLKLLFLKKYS

[2] = target: T2, Broad substrate specificity ATP-binding cassette transporter ABCG2 (Homo sapiens, UniProt Q9UNQ0); assay: TP_TRANSPORTER: intracellular accumulation in BCRP-transfected PC-13 cells; format: functional, cell-based
T2 sequence (Q9UNQ0 whole entry): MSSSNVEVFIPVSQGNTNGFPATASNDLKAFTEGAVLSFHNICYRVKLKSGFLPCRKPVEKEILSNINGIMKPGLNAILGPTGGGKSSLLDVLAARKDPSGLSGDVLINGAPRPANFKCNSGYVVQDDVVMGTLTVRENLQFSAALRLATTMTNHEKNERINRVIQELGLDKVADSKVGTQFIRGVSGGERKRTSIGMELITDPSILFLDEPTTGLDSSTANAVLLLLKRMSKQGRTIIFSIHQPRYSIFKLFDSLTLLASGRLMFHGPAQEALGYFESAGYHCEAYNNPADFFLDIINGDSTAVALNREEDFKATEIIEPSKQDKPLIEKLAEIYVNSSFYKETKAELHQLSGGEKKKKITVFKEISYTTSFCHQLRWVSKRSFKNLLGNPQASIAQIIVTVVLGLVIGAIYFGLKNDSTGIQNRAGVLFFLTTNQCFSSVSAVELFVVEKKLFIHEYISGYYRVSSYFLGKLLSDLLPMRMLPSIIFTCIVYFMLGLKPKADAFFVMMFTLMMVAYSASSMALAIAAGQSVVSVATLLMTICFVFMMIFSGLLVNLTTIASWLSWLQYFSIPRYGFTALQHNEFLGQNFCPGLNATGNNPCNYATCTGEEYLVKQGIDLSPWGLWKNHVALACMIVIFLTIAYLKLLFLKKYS

Compound | Activity [1] | Activity [2]
O=CNN1C(=O)c2c(c3c4cccc(O)c4n([C@@H]4O[C@H](CO)[C@@H](O)[C@H](O)[C@H]4O)c3c3[nH]c4c(O)cccc4c23)C1=O | substrate [+] | 
O=C1c2c(c3c4ccc(O)cc4n([C@@H]4O[C@H](CO)[C@@H](O)[C@H](O)[C@H]4O)c3c3[nH]c4cc(O)ccc4c23)C(=O)N1NC(CO)CO [EDOTECARIN] |  | substrate [+]
